This is an account of results in patent US8552013B2, “Heterocyclic compounds based on N6-substituted adenine, methods of their preparation, their use for preparation of drugs, cosmetic preparations and growth regulators, pharmaceutical preparations, cosmetic preparations and growth regulators containing these compounds” (USTAV Experimentalni Botaniky Akademie Ved Ceske Republiky, priority 2001, dated 2013).

The structures appear in SMILES notation. “And” between values parts separate entries of the source, which are not always exact repeats. Equal entries are not always repeated. Where two headings read alike, the source gives them in different places. Bounds are passed on as bounds.

One assay deals with K-562. Description: Calcein AM cytotoxicity, K-562. The assay is classed as cell-based. The conditions noted are these: read-out: IC 50, K-562. In short, it runs like this: (§1)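 Cells in DMEM with 10% FCS, pre-incubated 24 h, then exposed to six 4-fold compound dilutions in duplicate for 72 h at 37 °C, 5% CO2. Viability read by Calcein AM fluorescence after 1 h further incubation.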

In assay [1] the test system is human diploid fibroblasts (HCA cells). The experiment in a line: Senescence, beta-galactosidase staining of human diploid fibroblasts. The conditions noted are these: for SENESCENT CELLS (%) HCA25: passage 25; for SENESCENT CELLS (%) HCA45: passage 45; for SENESCENT CELLS (%) HCA80: passage 80. Format: cell-based. In short, it runs like this: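 HCA fibroblasts at passages 25, 45 and 80 were fixed for 5 min at room temperature in 2% formaldehyde/0.2% glutaraldehyde. They were then incubated at 37 °C without CO2 for 1 to 16 hours with X-gal 1 mg/ml, 5 mM ferri- and ferrocyanide and 2 mM MgCl2 in citric/phosphate buffer, pH 6.0. Blue-stained cells were scored.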

The subject of assay [2] is promyelocytic HL-60 leukemia. Description: Calcein AM cytotoxicity, HL60. Format: cell-based, human. The conditions noted are these: read-out: IC 50, HL60. Summed up: as §1
Another assay concerns Human lymphocytes. Description: Immunosuppressive activity, 3H-thymidine incorporation in concanavalin A activated lymphocytes. Format: cell-based. The conditions noted are these: Lymphocyte, 72 hours, [3H]-TdR, read-out: Human lymphocytes ED50. The text has this: One of the most important parameters of specific cellular immunity is proliferative response of lymphocytes to antigens or polyclonal mitogens. The majority of normal mammalian peripheral lymphocytes comprise resting cells. Antigens or nonspecific polyclonal mitogens have the capacity to activate lymphoid cells and this is accompanied by dramatic changes of intracellular metabolism (mitochondrial activity, protein synthesis, nucleic acids synthesis, formation of blastic cells and cellular proliferation). […] Variety of in vitro assays was developed to measure proliferative response of lymphocytes. The most commonly used is ^3H-thymidine incorporation method.
During cell proliferation, DNA has to be replicated before the cell is divided into two daughter cells. This close association between cell doublings and DNA synthesis is very attractive for assessing cell proliferation. If labelled DNA precursors are added to the cell culture, cells that are about to divide incorporate the labelled nucleotide into their DNA. Traditionally, those assays usually involve the use of radiolabelled nucleosides, particularly tritiated thymidine ([^3H]-TdR). The amount of [^3H]-TdR incorporated into the cellular DNA is quantified by liquid scintillation counting.
Human heparinized peripheral blood was obtained from healthy volunteers by cubital vein punction. The blood was diluted in PBS (1:3) and mononuclear cells were separated by centrifugation in Ficoll-Hypaque density gradient (Pharmacia, 1.077 g/ml) at 2200 rpm for 30 minutes. Following centrifugation, lymphocytes were washed in PBS and resuspended in cell culture medium (RMPI 1640, 2 mM glutamine, 100 U/ml penicillin, 100 μg/ml streptomycin, 10% fetal calf serum and sodium bicarbonate).
The cells were diluted at target density of 1,100,000 cells/ml were added by pipette (180 μl) into 96/well microtiter plates. Four-fold dilutions of the intended test concentration were added at time zero in 20 μl aliquots to the microtiter plate wells. Usually, test compound was evaluated at six 4-fold dilutions. In routine testing, the highest well concentration was 266.7 μM. All drug concentrations were examined in duplicates. All wells with exception of unstimulated controls were activated with 50 μl of concanavalin A (25 μg/ml). Incubations of cells with test compounds lasted for 72 hours at 37° C., in 5% CO2 atmosphere and 100% humidity. At the end of incubation period, the cells were assayed by using the [^3H]-TdR:
Cell cultures were incubated with 0.5 μCi (20 μl of stock solution 500 μCi/ml) per well for 6 hours at 37° C. and 5% CO2. The automated cell harvester was used to lyse cells in water and adsorb the DNA onto glass-fiber filters in the format of microtiter plate. The DNA incorporated [^3H]-TdR was retained on the filter while unincorporated material passes through. The filters were dried at room temperature overnight, sealed into a sample bag with 10-12 ml of scintillant. The amount of [^3H]-TdR present in each filter (in cpm) was determined by scintillation counting in a Betaplate liquid scintillation counter. The effective dose of immunosuppressant (ED) was calculated using the following equation: ED=(CCPMdrug exposed well/mean CCPMcontrol wells)×100%. The ED50 value, the drug concentration inhibiting proliferation of 50% of lymphocytes, was calculated from the obtained dose response curves.

As to `Fc1ccccc1CNc1ncnc2nc[nH]c12` [6-(2-fluorobenzylamino)purine], the IC50 in the assay on K-562 (72 hours) was 136 µM and 70.7 µM. Besides, in assay [1], the “SENESCENT CELLS (%) HCA25” value worked out at 4%, the “SENESCENT CELLS (%) HCA45” value is 3% and the “SENESCENT CELLS (%) HCA80” value came to 16%. Further, in assay [2] (72 hours, listed as 2F BAP), the IC50 was more than 167 µM. In addition, the EC50 in the assay on Human lymphocytes was found to be 2.5 µM.
As to `Cc1ccccc1CNc1ncnc2nc[nH]c12` [6-(2-methylbenzylamino)purine], the IC50 is 157 µM with K-562 (Homo sapiens, K562, 72 h) and more than 167 µM in assay [2] (Homo sapiens, HL-60, 72 h).
On to `Fc1cccc(CNc2ncnc3nc[nH]c23)c1` [6-(3-fluorobenzylamino)purine], for which, in assay [1], the “SENESCENT CELLS (%) HCA25” value is 3%, the “SENESCENT CELLS (%) HCA45” value was determined as 3% and the “SENESCENT CELLS (%) HCA80” value was 15%. Also, the EC50 in the assay with Human lymphocytes came to 18.2 µM.
In the case of `Ic1cccc(CNc2ncnc3nc[nH]c23)c1` [6-(3-iodobenzylamino)purine], the IC50 was 94.7 µM in the assay with K-562 (Homo sapiens, K562, 72 h) and 133 µM in assay [2] (Homo sapiens, HL-60, 72 h).
In the same order, the values of `Cc1ccc(CNc2ncnc3nc[nH]c23)cc1` [6-(4-methylbenzylamino)purine] are 72.8 µM and 88 µM.
Turning to `Oc1cccc(CNc2ncnc3nc[nH]c23)c1` [meta-topolin, 6-(3-hydroxybenzylamino)purine], in the assay on K-562 (72 hours, listed as MT), the IC50 is 140 µM. Further, in assay [1], the “SENESCENT CELLS (%) HCA25” value is 5%, the “SENESCENT CELLS (%) HCA45” value is 3% and the “SENESCENT CELLS (%) HCA80” value stood at 22%. For the same compound, the EC50 in the assay with Human lymphocytes is 5.6 µM.
On to `Oc1ccccc1CNc1ncnc2nc[nH]c12` [ortho-topolin, 6-(2-hydroxybenzylamino)purine], for which, in assay [1], the “SENESCENT CELLS (%) HCA25” value is 3%, the “SENESCENT CELLS (%) HCA45” value is recorded as 4% and the “SENESCENT CELLS (%) HCA80” value was determined as 17%.
